Laboratory results published in US10933141B2, “Formulations with reduced degradation of polysorbate” (Genentech, Inc., priority 2015, dated 2021).

Experiments:
Assay type in all cases: biochemical
[1] = molecular target: T1, porcine pancreatic lipase (PPL) (Sus scrofa, UniProt P00591); experiment: Enzymatic degradation of PS80 by PPL (RP-ELSD, HIAC)
T1 construct: purchased Sigma Aldrich Inc. (St. Louis, Mo.)
T1 sequence (P00591 1-450): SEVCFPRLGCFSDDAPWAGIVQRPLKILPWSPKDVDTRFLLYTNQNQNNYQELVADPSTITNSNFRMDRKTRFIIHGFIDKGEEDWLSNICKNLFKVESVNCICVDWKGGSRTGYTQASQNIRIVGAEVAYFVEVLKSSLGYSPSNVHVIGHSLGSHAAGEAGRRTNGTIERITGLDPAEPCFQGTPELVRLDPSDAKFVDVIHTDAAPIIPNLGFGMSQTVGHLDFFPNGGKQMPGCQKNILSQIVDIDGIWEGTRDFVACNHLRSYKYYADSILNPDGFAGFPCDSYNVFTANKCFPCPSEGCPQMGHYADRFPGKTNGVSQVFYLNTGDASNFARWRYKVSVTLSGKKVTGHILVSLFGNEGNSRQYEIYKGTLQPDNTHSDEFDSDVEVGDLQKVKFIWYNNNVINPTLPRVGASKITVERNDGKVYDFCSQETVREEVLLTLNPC
Description: Subvisible particles were measured using a HIAC 9703 particle counter equipped with an HRDL-150 detector and a 1 mL syringe. Performance of the instrument was verified with NIST-traceable 2 μm Polystyrene bead standards at 3000 counts/mL before each measurement session. The HIAC instrument was configured to a 10 mL/min flow rate, 0.1 mL tare volume, and 0.4 mL sample volume. The samples were analyzed using 4 runs of 0.4 mL sips, with the first run of each sample was discarded to prevent measurement error due to sample carryover. Results were reported as the average values for 1.4, 2, 5, 10, 15, and 25, 50 μm analysis filter sizes.
Polysorbate concentration was determined using reverse phase ultra-performance liquid chromatography using evaporative light scattering detection (RP-ELSD). Samples were analyzed using an Agilent 1100 series high performance liquid chromatography system (HPLC) fitted with a Waters Oasis MAX cartridge column (20×2.1 mm, 30 μm particle size). […] In order to quantitate the PS20 concentration, a standard curve was generated by injecting 20 μL of solutions containing between 0% w/v and 0.4% w/v PS20. For excipients which affected the migration time of PS20 through the column, PS20 standard curve solutions containing the relevant excipient were included in the analysis to facilitate accurate quantitation. […]

[2] = tested on: Rabbit Liver Esterase (RLE); experiment: Enzymatic degradation of PS20 by RLE, PS20 by RP-ELSD; settings: 15% w/v HP-β-CD; 0.02% PS20, pH 5.5; 15 μg/mL RLE, 5 hours, room temperature
Description: (§1) Polysorbate concentration was determined using reverse phase ultra-performance liquid chromatography using evaporative light scattering detection (RP-ELSD). Samples were analyzed using an Agilent 1100 series high performance liquid chromatography system (HPLC) fitted with a Waters Oasis MAX cartridge column (20×2.1 mm, 30 μm particle size). The HPLC system was set up with a switching valve directing column flow-through to either waste or a Varian 380-LC evaporative light scattering detector set to 100° C. The mobile phases consisted of 2% formic acid in water (Pump A) and 2% formic acid in isopropanol (Pump B). […] In order to quantitate the PS20 concentration, a standard curve was generated by injecting 20 μL of solutions containing between 0% w/v and 0.4% w/v PS20. For excipients which affected the migration time of PS20 through the column, PS20 standard curve solutions containing the relevant excipient were included in the analysis to facilitate accurate quantitation.
The effect of 15% HP-β-CD on the enzymatic degradation of PS20 was measured. […]
PPL digestion was stopped by heat inactivation in an 85° C. water bath for 30 minutes. LPL and RLE digestion could not be stopped by heat inactivation, so the samples were analyzed immediately for PS20 content. […]

[3] = molecular target: T1, porcine pancreatic lipase (PPL); experiment: Kinetics of enzymatic PS20 degradation by PPL; settings: 15% sucrose; 0.02% (w/v) PS20; 15 μg/mL PPL, about 25° C., 180 hours
Description: as §1, with “B). The pump gradient was isocratic at 10% pump B during equilibration, linear to 20% pump B for 1 minute, isocratic at 20% pump B for 2.4 minutes, linear to 100% pump B for 0.1 minutes, isocratic at 100% pump B for 1.1 minutes, linear to 10% pump B for 0.1 minutes, and finally isocratic at 10% pump B for 1.9 minutes.” for “B).”, “quantitation. […]” for “quantitation.”

Compound	subvisible particulates (SVP/mL) after PPL degradation of PS80 ([1]; 15% (w/v) HP-β-CD vs 0%, ≥1.4 to ≥25 micron, HIAC)	decrease in PS80 ([1]; 15% (w/v) HP-β-CD, 0.02% (w/v) PS80, pH 5.5, 15 μg/mL PPL, 5 hours, room temperature)	Polysorbate 20 (Relative %) [2]	plateau of PS20 degradation curve [3]
2-hydroxypropyl-β-cyclodextrin [HP-β-CD]	fewer SVP/mL	approximately 4%	62.7%	–
OC[C@H]1O[C@@](CO)(O[C@H]2O[C@H](CO)[C@@H](O)[C@H](O)[C@H]2O)[C@@H](O)[C@@H]1O [sucrose, reference compound]	–	–	–	44%
